Key:
[1] = system: carrageenan-induced swelling of the right hind paw; test: Anti-inflammatory effects: inhibition of carrageenan-induced hind paw swelling; format: in vivo, Wistar rats; settings: oral, 60 min before carrageenan, foot volume 3 hours later
Procedure: After fasting a group of five Wistar rats of 6 weeks old for 18 hours, each test compound dissolved or suspended in a 0.5% solution of sodium carboxymethylcellulose (CMC-Na) was administered orally. Sixty minutes after the administration of the test compound, 0.1 ml of a 1% carrageenan solution was injected into subplanter surface of the right hind paw of each rat. The foot volume (A) was measured 3 hours later. From the foot volume (B) before the administration of carrageenan, the percent swelling ((A-B)/B×100) was calculated and compared with those of control rats.
Inhibition (%)= [formula]

[2] = system: spontaneously-beating atrial muscle; test: Cardiotonic effects: contractile force and heart rate of isolated spontaneously beating atria; set-up: species or system Hartley male guinea pig; settings: cumulative
Procedure: The heart of a Hartley male guinea pig having a body weight of 500-800 g was removed. Its atrial muscles were isolated in Krebs-Henseleit's solution. A spontaneously-beating atrial muscle was suspended, in a bath containing 20 ml of Krebs-Henseleit's solution gassed with 95% O2 +5% CO2 at 32° C. Thereafter, the contractile force and its heart rate were measured. After stabilization, test compounds which were dissolved in a small amount of 1N hydrochloric acid or 0.1N hydrochloric acid and then diluted with a physiological saline, were administered cumulatively ([…]) to evaluate effects on the contractile force. The maximum percent change in increase of the contractile force induced by test compounds was determined and regarded as an index for cardiotonic (positive inotropic) effects. Heart rate increasing or decreasing effects (positive or negative chronotropism) were also observed.

[3] = Acute toxicity, mouse; settings: in vivo, po
[4] = system: ouabain-induced arrhythmia; test: Antiarrhythmic effects: amount of ouabain required to induce arrhythmia; format: in vivo, Hartley male guinea pigs; settings: 10 mg/kg i.v., ouabain infused at 4 μg/kg/min; for amount of ouabain required to induce unequal intervals of R-R wave: control 59.2; for amount of ouabain required to induce ventricular extrasystole or A-V block: control 80.5; for amount of ouabain required to induce ventricular extrasystole or A-V block / amount of ouabain required to induce cardiac arrest / amount of ouabain required to induce ventricular fibrillation: in µg/kg (unit assumed); for amount of ouabain required to induce cardiac arrest: control 246.6; for amount of ouabain required to induce ventricular fibrillation: control 170.0
Procedure: Using a group of five Hartley male guinea pigs (body weights: 530-990 g), their electrocardiograms were recorded from a limbic lead II under anesthesia with urethane 1.2 g/kg i.p. to investigate the antiarrhythmic effects. Namely, each test compound dissolved in 0.1N hydrochloric acid and diluted with a physiological saline was intravenously administered at a dose of 10 mg/kg. Immediately after the administration of the test compound, ouabain was continuously infused at a rate of 4 μg/kg/min through a polyethylene cannula inserted in the jugular vein of the guinea pigs so as to induce arrhythmia. The antiarrhythmic effects were judged from the amount of ouabain required to induce unequal intervals of R-R wave, ventricular extrasystole or A-V block, ventricular fibrillation and cardiac arrest.

[5] = Acute toxicity, rat; settings: in vivo, po

Row | Compound | Chronotropy, % of Control (in parentheses) ([2]; 3 × 10^-5 g/ml) | Inotropy, % of Control ([2]; 3 × 10^-5 g/ml) | Chronotropy, % of Control (in parentheses) ([2]; 3 × 10^-6 g/ml) | Inotropy, % of Control ([2]; 3 × 10^-6 g/ml) | Chronotropy, % of Control (in parentheses) ([2]; 10^-4 g/ml) | Inotropy, % of Control ([2]; 10^-4 g/ml) | Chronotropy, % of Control (in parentheses) ([2]; 10^-5 g/ml) | Inotropy, % of Control ([2]; 10^-5 g/ml) | Chronotropy, % of Control (in parentheses) ([2]; 10^-6 g/ml) | Inotropy, % of Control ([2]; 10^-6 g/ml) | LD50 [3] | other results
1 | Nc1cc2cccnc2c(N2CCOCC2)n1 [Compound No. 3, 6-amino-8-morpholino-1,7-naphthyridine] |  |  |  |  |  |  |  |  |  |  |  | Inhibition (%) ([1]; 100 mg/kg): 55.0%
2 | CC(=O)Nc1cc2cccnc2c(NCc2cccnc2)n1 [Compound No. 13] | 1.9% | 52.3% | 1.6% | 8.7% | -11.8% | 92.9% | 3.1% | 24.6% | 0.2% | 2.6% | > 500 mg/kg | 
3 | CC(=O)Nc1cc2cccnc2c(N2CCN(C)CC2)n1 [compound 19] |  |  |  |  |  |  |  |  |  |  |  | amount of ouabain required to induce unequal intervals of R-R wave [4]: 68.9 µg/kg; amount of ouabain required to induce ventricular extrasystole or A-V block [4]: 146.0; amount of ouabain required to induce cardiac arrest [4]: 392.1
4 | CC(=O)Nc1cc2cccnc2c(N(C)C)n1 [Compound No. 16] | 7.0% | 36.8% | 1.6% | 4.5% | 19.0% | 103.2% | 3.3% | 12.5% |  |  | > 500 mg/kg | 
5 | CC(=O)Nc1cc2cccnc2c(N2CCN(CCO)CC2)n1 [Compound No. 22, 6-acetamido-8-[4-(2-hydroxyethyl)-1-piperazinyl]-1,7-naphthyridine] |  |  |  |  |  |  |  |  |  |  | 1600 mg/kg | Inhibition (%) ([1]; 10 mg/kg): 42.4%; amount of ouabain required to induce unequal intervals of R-R wave [4]: 69.6 µg/kg; amount of ouabain required to induce ventricular extrasystole or A-V block [4]: 109.6; amount of ouabain required to induce ventricular fibrillation [4]: 285.4; amount of ouabain required to induce cardiac arrest [4]: 399.3; LD50 [5]: > 3000 mg/kg
6 | CC(=O)Nc1cc2cccnc2c(NCC(O)CO)n1 (stereo not drawn) [compound 9] |  |  |  |  |  |  |  |  |  |  |  | Inhibition (%) ([1]; 30 mg/kg): 27.1%
7 | CCCCCCCC(=O)Nc1cc2cccnc2c(N2CCN(CCO)CC2)n1 [compound 25] |  |  |  |  |  |  |  |  |  |  |  | Inhibition (%) ([1]; 10 mg/kg): 44.6%
8 | CC(=O)Nc1cc2cccnc2c(NCCCO)n1 [Compound No. 8] | 6.8% | 33.4% | 2.7% | 9.6% | 12.9% | 64.1% | 4.0% | 16.4% | 1.1% | 4.1% |  | 
9 | Nc1cc2cccnc2c(N2CCN(CCO)CC2)n1 [Compound No. 4] |  |  |  |  |  |  |  |  |  |  | > 1000 mg/kg | Inhibition (%) ([1]; 30 mg/kg): 54.0%; amount of ouabain required to induce unequal intervals of R-R wave [4]: 59.1 µg/kg; amount of ouabain required to induce ventricular extrasystole or A-V block [4]: 78.9; amount of ouabain required to induce ventricular fibrillation [4]: 216.5; amount of ouabain required to induce cardiac arrest [4]: 277.5
10 | CNc1nc(NC(C)=O)cc2cccnc12 [compound 5] | 8.6% | 29.0% | 3.6% | 8.6% | 13.0% | 59.1% | 5.9% | 12.9% | 1.7% | 4.7% |  | 
11 | CCOc1nc(NC(C)=O)cc2cccnc12 [compound 34] | 25.7% | 38.7% | 10.3% | 13.3% | 46.0% | 89.2% | 18.5% | 24.9% | 5.3% | 6.3% |  | 
